Assay results reported in ChEMBL document CHEMBL3396984, “Structure-activity relationship study of diphenylamine-based estrogen receptor (ER) antagonists” (Bioorg Med Chem, 2015).
Active and inactive are the calls of the source. No cut-off for these calls is given here.

Key:
MCF7 [1] = experiment: Antiproliferative activity against human MCF7 cells after 5 days by WST-8 assay; format: functional, cell-based
MCF7 [2] = experiment: Estrogenic activity in human MCF7 cells; format: functional, cell-based
MCF7 [3] = experiment: Ratio of tamoxifen IC50 to compound IC50 for human MCF7 cells; format: functional
[4] = Homo sapiens, MCF7, 120 h, read-out: IC50

| SMILES | Activity (MCF7 [1]) | IC50 (MCF7 [1]; [4]) [nM] | Activity (MCF7 [2]) | IC50 (MCF7 [1]; mcf7) | Ratio IC50 (MCF7 [3]) |
| --- | --- | --- | --- | --- | --- |
| CCCCCCN(c1ccc(O)cc1)c1ccc(OCCN2CCCCCC2)cc1 | Dose-dependent effect | 1400 | inactive |  |  |
| CCC(=C(c1ccc(O)cc1)c1ccc(OCCN(C)C)cc1)c1ccccc1 | Dose-dependent effect | 8900 |  |  |  |
| O=S(=O)(c1ccccc1)N(c1ccc(O)cc1)c1ccc(OCCN2CCCCC2)cc1 | Dose-dependent effect | 320 | inactive |  |  |
| CCCCCCN(c1ccc(O)cc1)c1ccc(OCCCN(C)C)cc1 | Dose-dependent effect |  | inactive | Not Active |  |
| CCCCCCN(c1ccc(O)cc1)c1ccc(OCCN(C)C)cc1 | Dose-dependent effect | 2400 | inactive |  |  |
| CCN(CC)CCOc1ccc(N(Cc2ccccc2)c2ccc(O)cc2)cc1 | Dose-dependent effect | 1900 | inactive |  |  |
| O=S(=O)(c1ccccc1)N(c1ccc(O)cc1)c1ccc(OCCN2CCCC2)cc1 | Dose-dependent effect | 500 | inactive |  |  |
| CN(C)CCCOc1ccc(N(Cc2ccccc2)c2ccc(O)cc2)cc1 | Dose-dependent effect | 2800 | inactive |  |  |
| CCCCCCN(c1ccc(O)cc1)c1ccc(OCCN2CCCCC2)cc1 | Dose-dependent effect | 130 | inactive |  | 10 |
| Oc1ccc(N(Cc2ccccc2)c2ccc(OCCN3CCCC3)cc2)cc1 | Dose-dependent effect | 1300 | inactive |  |  |
| Oc1ccc(N(Cc2ccccc2)c2ccc(OCCN3CCCCCC3)cc2)cc1 | Dose-dependent effect | 660 | inactive |  |  |
| CN(C)CCCOc1ccc(N(c2ccc(O)cc2)S(=O)(=O)c2ccccc2)cc1 | Dose-dependent effect | 2200 | inactive |  |  |
| CN(C)CCOc1ccc(N(c2ccc(O)cc2)S(=O)(=O)c2ccccc2)cc1 | Dose-dependent effect | 9300 | inactive |  |  |
| CN(C)CCOc1ccc(N(Cc2ccccc2)c2ccc(O)cc2)cc1 | Dose-dependent effect | 4400 | inactive |  |  |
| Oc1ccc(N(Cc2ccccc2)c2ccc(OCCN3CCCCC3)cc2)cc1 | Dose-dependent effect | 800 | inactive |  |  |
| CCN(CC)CCOc1ccc(N(c2ccc(O)cc2)S(=O)(=O)c2ccccc2)cc1 | Dose-dependent effect | 1300 | inactive |  |  |
| CCCCCCN(c1ccc(O)cc1)c1ccc(OCCN2CCCC2)cc1 | Dose-dependent effect | 2700 | inactive |  |  |
| CCCCCCN(c1ccc(O)cc1)c1ccc(OCCN(CC)CC)cc1 | Dose-dependent effect | 1400 | inactive |  |  |
| CC/C(=C(\c1ccccc1)c1ccc(OCCN(C)C)cc1)c1ccccc1 [TAMOXIFEN] | Dose-dependent effect | 2100 |  |  |  |
